Results reported in patent publication US20090022803A1, “Oral Formulations For Delivery of Catecholic Butanes Including Ndga Compounds” (priority 2005, published 2009).
Where two headings read alike, the source gives them in different places.

Assay type: physicochemical
Details: for Dissolution After Heating: 90° C.
Procedure: A 10 mL solution of M4N at a concentration of about 10 mg/mL in 40% BP-β-CD was made as follows. About 10 mL of the 40% HP-β-CD solution were added to a glass beaker containing a stir bar. The beaker was placed on a magnetic plate and the stir bar was set to stir at medium speed. About […] of M4N were slowly added to the 40% HP-β-CD in the center of the beaker with the aid of a spatula. The M4N/40% HP-β-CD mixture was stirred for 2 hr or until all M4N was uniformly suspended without any clumps being present. The M4N/40% HP-β-CD mixture was optionally heated at 80° C. for about 30 min. (or longer if a larger volume of solution was desired, for example, 1 hr at 80° C. for 100 mL of the M4N/HP-β-CD mixture), or longer as needed to ensure complete dissolution of M4N. […] The final M4N/40% HP-β-CD solution was stored at room temperature and was kept protected from light. This process may be scaled up or down to obtain the requisite volume or concentration of M4N. Formulations containing M4N in other cyclodextrin solutions may be similarly made, such as, for example, by substituting HP-β-CD in the process described above with other cyclodextrins. […]
A 10 mL solution of M4N at a concentration of about 10 mg/mL in 50% HP-β-CD/0.5% HPMC was made as follows. About 10 mL of the 50% HP-β-CD/0.5% HPMC solution were added to a glass beaker containing a stir bar. The beaker was placed on a magnetic plate and the stir bar was set to stir at medium speed. About 100 mg of M4N were slowly added to the 50% HP-β-CD/0.5% HPMC in the center of the beaker with the aid of a spatula. The M4N/50% HP-β-CD/0.5% HPMC mixture was stirred for 24 hr or until all M4N was uniformly suspended without any clumps being present. The M4N/50% HP-β-CD/0.5% HPMC mixture was heated at about 90° C. for about 30 min. (or longer if a larger volume of solution was desired, for example, 1 hr at 90° C. for 500 mL of the M4N/50% HP-β-CD/0.5% HPMC mixture), or longer as needed to ensure complete dissolution of M4N. […] The final M4N/50% HP-β-CD/0.5% HPMC solution was stored at room temperature and was kept protected from light.
A 10 mL solution of M4N at a concentration of about 20 mg/mL in 5% EC (w/v) (the “EC formulation”) was made as follows. About 10 mL of 5% EC formulation, made as described above, were added to a glass beaker containing a stir bar. The beaker was placed on a magnetic plate and the stir bar was set to stir at medium speed, and covered with a round Teflon® cover. About 200 mg of M4N were slowly added to the 5% EC formulation in the center of the beaker with the aid of a spatula to prevent M4N from sticking to the beaker wall. The M4N/EC mixture was stirred for 2 hr or until all M4N had dissolved or was uniformly suspended without any clumps being present. The M4N/EC mixture was heated at about 60° C. for about 30 min. (or longer if a larger volume of solution was desired, for example, 1 hr at 60° C. for 500 mL of the M4N/EC mixture), or longer as needed to ensure complete dissolution of M4N. […] The final M4N/EC solution was stored at room temperature and was kept protected from light.
A 10 mL solution of M4N at a concentration of about 50 mg/mL in sesame oil was made as follows. About 10 mL of sesame oil were added to a glass beaker containing a stir bar. The beaker was placed on a magnetic plate and the stir bar was set to stir at medium speed. About 500 mg of M4N were slowly added to the sesame oil in the center of the beaker with the aid of a spatula to prevent M4N from sticking to the beaker wall. The M4N/sesame oil mixture was stirred for about 2 hr or until all M4N had dissolved or was uniformly suspended without any clump being present. The M4N/sesame oil mixture was heated at about 60° C. for about 30 min. (or longer if a larger volume of solution was desired, for example, 1 hr at 60° C. for 500 mL of the M4N/sesame oil mixture), or longer as need to ensure complete dissolution of M4N. […]

[1] = M4N 1 mg/mL in 40% HP-β-CD, 1% PVP (w/v)
[2] = M4N 1 mg/mL in 50% HP-β-CD, 0.5% HPMC
[3] = M4N 1 mg/mL in 50% HP-β-CD, 1.25% PVP (w/v)
[4] = M4N 3.13 mg/mL in 5% HP-β-CD, 12.5% PEG 300 (v/v)
[5] = M4N 4.17 mg/mL in 6.7% HP-β-CD, 16.7% PEG 300 (v/v)
[6] = M4N 6.25 mg/mL in 10% HP-β-CD, 25% PEG 300 (v/v)
For Dissolution After Cool Down in this document: key: N represents 'No'; Y represents 'Yes.'.

COc1ccc(C[C@@H](C)[C@@H](C)Cc2ccc(OC)c(OC)c2)cc1OC [Formulation M4N, meso-1,4-bis(3,4-dimethoxyphenyl)-2,3-dimethylbutane]
Dissolution After Rotation (M4N 1 mg/mL in 1.50% β-CD): N | Dissolution After Heating at X° C. (M4N 1 mg/mL in 1.50% β-CD, 90°): N at 90° | Dissolution After Rotation (M4N 1 mg/mL in 2% MC (Low viscosity)): N | Dissolution After Rotation (M4N 1 mg/mL in 2.3% HPMC): N | Dissolution After Heating (M4N 1 mg/mL in 2.3% HPMC): N at 90 °C | Dissolution After Rotation (M4N 1 mg/mL in 5% EC in EtOH): Y | Dissolution After Rotation (M4N 1 mg/mL in 5% γ-CD): N | Dissolution After Heating at X° C. (M4N 1 mg/mL in 5% γ-CD, 90°): N at 90° | Dissolution After Rotation (M4N 1 mg/mL in 15% α-CD): N | Dissolution After Heating at X° C. (M4N 1 mg/mL in 15% α-CD, 90°): N at 90° | Dissolution After Cool Down (M4N 1 mg/mL in 20% HP-β-CD): Y | Dissolution After Rotation (M4N 1 mg/mL in 20% HP-β-CD): N | Dissolution After Rotation (M4N 1 mg/mL in 20% HP-β-CD in saline): N | Dissolution After Heating at X° C. (M4N 1 mg/mL in 20% HP-β-CD, 90°): Y at 90° | Dissolution After Cool Down (M4N 1 mg/mL in 30% HP-β-CD): Y | Dissolution After Rotation (M4N 1 mg/mL in 30% HP-β-CD): N | Dissolution After Heating at X° C. (M4N 1 mg/mL in 30% HP-β-CD, 90°): Y at 90° | Dissolution After Cool Down (M4N 1 mg/mL in 40% HP-β-CD): Y | Dissolution After Rotation (M4N 1 mg/mL in 40% HP-β-CD): N | Dissolution After Heating at X° C. [1]: N | Dissolution After Rotation [1]: N | Dissolution After Rotation (M4N 1 mg/mL in 40% HP-β-CD, 2.5% PG (v/v)): N | Dissolution After Heating at X° C. (M4N 1 mg/mL in 40% HP-β-CD, 2.5% PG (v/v), 80°): N at 80° | Dissolution After Heating at X° C. (M4N 1 mg/mL in 40% HP-β-CD, 80°): Y at 80° | Dissolution After Cool Down (M4N 1 mg/mL in 50% HP-β-CD): Y | Dissolution After Rotation (M4N 1 mg/mL in 50% HP-β-CD): N | Dissolution After Rotation (M4N 1 mg/mL in 50% HP-β-CD, 0.5% CMC): Suspension | Dissolution After Cool-Down [2]: Y | Dissolution After Rotation [2]: N | Dissolution After Rotation (M4N 1 mg/mL in 50% HP-β-CD, 0.5% HPMC, other experiment, no heat): Suspension | Dissolution After Cool Down [3]: Y | Dissolution After Rotation [3]: N | Dissolution After Heating at X° C. (M4N 1 mg/mL in 50% HP-β-CD, 1.25% PVP (w/v), 90°): Y at 90° | Dissolution After Heating at X° C. (M4N 1 mg/mL in 50% HP-β-CD, 90°): Y at 90° | Dissolution After Cool-Down (M4N 1 mg/mL in Corn Oil): Y | Dissolution After Cool Down [4]: Y | Dissolution After Rotation [4]: N | Dissolution After Heating at X° C. (M4N 3.13 mg/mL in 5% HP-β-CD, 12.5% PEG 300 (v/v), 60°): Y at 60° | Dissolution After Cool Down [5]: Y | Dissolution After Rotation [5]: N | Dissolution After Heating at X° C. (M4N 4.17 mg/mL in 6.7% HP-β-CD, 16.7% PEG 300 (v/v), 60°): Y at 60° | Dissolution After Cool Down [6]: Y | Dissolution After Rotation [6]: N | Dissolution After Heating at X° C. (M4N 6.25 mg/mL in 10% HP-β-CD, 25% PEG 300 (v/v), 60°): Y at 60° | Dissolution After Rotation (M4N 10 mg/mL in 1% HPMC): suspension | Dissolution After Rotation (M4N 10 mg/mL in 1.50% β-CD): N | Dissolution After Heating at X° C. (M4N 10 mg/mL in 1.50% β-CD, 90°): N at 90° | Dissolution After Rotation (M4N 10 mg/mL in 2.3% HPMC): N | Dissolution After Heating (M4N 10 mg/mL in 2.3% HPMC): N at 90 °C | Dissolution After Cool-Down (M4N 10 mg/mL in 5% EC in EtOH): Y | Dissolution After Rotation (M4N 10 mg/mL in 5% EC in EtOH): N | Dissolution After Rotation (M4N 10 mg/mL in 15% α-CD): N | Dissolution After Heating at X° C. (M4N 10 mg/mL in 15% α-CD, 90°): N at 90° | Dissolution After Rotation (M4N 10 mg/mL in 20% HP-β-CD): N | Dissolution After Rotation (M4N 10 mg/mL in 20% HP-β-CD in saline): N | Dissolution After Heating at X° C. (M4N 10 mg/mL in 20% HP-β-CD, 90°): N at 90° | Dissolution After Cool Down (M4N 10 mg/mL in 30% HP-β-CD): Y | Dissolution After Rotation (M4N 10 mg/mL in 30% HP-β-CD): N | Dissolution After Heating at X° C. (M4N 10 mg/mL in 30% HP-β-CD, 90°): Y at 90°
